# Like-named read-outs stand apart in the source and are kept apart here.
# Columns and labels:
# [1] = DT50 in sea water; type: physicochemical; conditions: 16° C.; Not GLP/GEP
# [2] = Half-life in fish-farm sediment (Skye); type: physicochemical; conditions: Not GLP/GEP
# Protocol: In common with most plant-derived biocides, the azadirachtin terpenoids have a short half-life in the environment. They hydrolyse in water, and their disappearance is faster the more alkaline the water. For example, at pH 7.0 and 20° C. the half-life of azadirachtin terpenoids is 19.5 days, and at pH 8.0 it is 4.4 days. As seawater is slightly alkaline, (pH 7.5-8.4) any dissolved azadirachtin terpenoids will have largely disappeared within a week. Azadirachtin is rapidly catabolized by the microflora in soil. […] Preliminary studies with some sediment from below cages in Skye (Scotland) and subsequently infused with NeemAzal® in the laboratory have indicated a half-life of 3 weeks for NeemAzal® Technical added to the sediment and incubated at 15° C. Unchanged excreted material will be infinitely diluted in the water and hydrolyzed within days into small fragments without biological activity.
# [3] = cited from earlier work
# [4] = 20° C.; cited from earlier work
structure (smiles),measurement,setting,value
"C/C=C(\C)C(=O)O[C@H]1C[C@@H](OC(C)=O)[C@@]2(C(=O)OC)CO[C@H]3[C@@H](O)[C@@](C)([C@]45O[C@@]4(C)[C@H]4C[C@@H]5O[C@@H]5OC=C[C@@]54O)[C@H]4[C@]1(CO[C@]4(O)C(=O)OC)[C@@H]32 (relative stereo) [Azadirachtin A, dimethyl [2aR-[2aα,3β,4β(1aR*,2S*,3aS*,6aS*,7S*,7aS*),4aβ,5α,7aS*,8β(E),10β,10aα,10bβ]]-10-(acetyloxy)octahydro-3,5-dihydroxy-4-methyl-8-[(2-methyl-1-oxo-2-butenyl)oxy]-4-(3a,6a,7,7a)-tetrahydro-6a-hydroxy-7a-methyl-2,7-methanofuro[2,3-b]oxireno[e]oxepin-1a(2H)-yl)-1H,7H-naphtho-[1,8-bc:4,4a-c′]difuran-5,10a(8H)-dicarboxylate]",DT50 in sea water,[1],8 days
same,DT50 in fish-farm sediment (Skye),[2],3 weeks
same,DT50 in fresh water,[3]; pH 4.0,50 days
same,DT50 in fresh water,[3]; pH 7.0,19 days
same,DT50 in fresh water,[3]; pH 8.0,4 days
same,DT50 in field soil,[4],4 to 5 days
